These results are taken from patent US20230057984A1, “NORMALIZATION OF CULTURE OF CORNEAL ENDOTHELIAL CELLS” (KYOTO PREFECTURAL PUBLIC UNIVERSITY CORPORATION, priority 2011, published 2023).

Series [1] concerns Human corneal endothelial cells. Put plainly: ELISA of type 1 collagen in culture supernatant of HCEC. In kind it is cell-based. Conditions: HCEC with vs without SB431542, n=5, P<0.05. On the procedure:
Corneal endothelial cells were mechanically exfoliated together with basement membranes from research corneas purchased from the Seattle bank, followed by exfoliating from the basement membranes using collagenase for collection, and then primary culturing. […] The collected human corneal endothelial cells were divided into two, and one group of them was cultured with the base culture medium as a control, and the other group of them was cultured with a base culture medium with SB431542 (TOCRIS, catalog number: 1614) added thereto such that the final concentration would be 1 μmol/L. • Enzyme-linked immunosorbent assay (ELISA): type 1 collagen in a culture supernatant of HCEC was assayed by using a ELISA kits for Collagen Type I Alpha 2 (COL1a2) (Uscn Life Science Inc., Wuhan, China) in accordance with the instruction manual of the manufacturer. Culture supernatants derived from HCEC, cultured together with SB431542 or without SB431542, were used for respective groups (n=5).

Series [2] deals with Cynomolgus monkey corneal endothelial cells. Put plainly: Immunostaining of Na+/K+-ATPase and ZO-1 in monkey corneal endothelial cells (Example 3). Format: cell-based. Conditions: monkey CEC treated with SB431542; control lost its staining. On the procedure:
Phosphatase inhibitor cocktail 2 (Sigma-Aldrich) and protease inhibitor cocktail (Nacalai Tesque, Inc., Kyoto city) were added to the aforementioned RIPA buffer. The obtained cell lysate was centrifuged (15,000 rpm, 10 minutes) where the supernatant thereof was collected, and the protein was quantitated using a BCA PROTEIN ASSAY KIT (PIERCE (catalog number: 23227)). Dissolution was performed using 100 μl dissolution buffer (Laemmli sample buffer) including 5 mM 2-mercaptoethanol (Nacalai Tesque (catalog number: 21418-42)). • Immunostaining: after washing cells which had reached confluency with PBS (Nissui, catalog number: 5913), the cells were fixed for 10 minutes with iced ethanol (Nacalai Tesque, catalog number: 14713-95) and acetic acid (WAKO catalog number:017-00256) (95:5).
Blocking was performed via incubation for 1 hour with 0.1% (vol/vol) polyethylene sorbitan monolaurate (Nacalai Tesque, catalog number: 28353-85) (TBS-T) and Tris buffered saline (10 mM Tris-HCl, pH7.4; 100 mM NaCl) with 10% fetal bovine serum. […]
Next, reaction was allowed for 1 hour at a room temperature with ALEXA FLUOR 488 (INVITROGEN (catalog number: A21206)) and ALEXA FLUOR 594 (INVITROGEN (catalog number: A21203)), diluted with TBS-T by 1,000 fold. […] After washing, bands were detected using an ECL-ADVAVCE Western Blotting Detection Kit (GE healthcare Japan (catalog number: RPN2135V)). […]

The subject of series [3] is HCEC. Put plainly: Consecutive treatments of cultured HCEC over several passages, observation of harmful effects. Conditions: even after several passages.

On to `NC(=O)c1ccc(-c2nc(-c3ccc4c(c3)OCO4)c(-c3ccccn3)[nH]2)cc1` [SB431542], for which the “secretion of collagen type 1 to the cell supernatant (ELISA)” value in series [1] is reported as “significantly down-regulated”. For the same compound, in series [2], the “plasma membrane staining of Na+/K+-ATPase and ZO-1 (immunostaining)” value was “characteristic plasma membrane staining of Na^+/K^+-ATPase and ZO-1”. The “harmful effects with regard to the forms or functions” value in series [3] is on record as “not seen any clear, harmful effects”.
